# Experimental data as given in ChEMBL document CHEMBL1201862, “PubChem BioAssay data set” (2004).
# Where “and” joins values, the source holds several entries; their conditions need not be identical. Equal values may be shown once.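 Where inhibition never reached the appropriate level, the endpoint shown equals the highest concentration tested. Otherwise, values were interpolated linearly from a five-concentration, 48-hour dose response in 96-well plates. The concentration for 50% growth inhibition is given as GI50.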 Calls of active or inactive are those of the source. Cut-off read from the data, not from the text of the source: active = GI50 up to about 1.1 µM and inactive = higher.
# Key:
# Assay in all cases: NCI anticancer screen, dose series, 48 h
# SK-OV-3 = tested on: SK-OV-3
# IGROV-1 = tested on: IGROV-1
# U-251 = tested on: U-251
# OVCAR-3 = tested on: OVCAR-3
# A549 = tested on: A549
# SF-268 = tested on: SF-268
# SR = tested on: SR
# RPMI-8226 = tested on: RPMI-8226
# MDA-MB-435 = tested on: MDA-MB-435
# DU-145 = tested on: DU-145
# MOLT-4 = tested on: MOLT-4
# EKVX = tested on: EKVX
# 786-0 = tested on: 786-0
# NCI-H23 = tested on: NCI-H23
# HL-60 = tested on: HL-60
# HCC 2998 = tested on: HCC 2998
# BT-549 = tested on: BT-549
# HT-29 = tested on: HT-29
# MCF7 = tested on: MCF7
# COLO 205 = tested on: COLO 205
# TK-10 = tested on: TK-10
# SN12C = tested on: SN12C
# HOP-92 = tested on: HOP-92
# PC-3 = tested on: PC-3
# SW-620 = tested on: SW-620
# SF-295 = tested on: SF-295
# CCRF-CEM = tested on: CCRF-CEM
# SNB-19 = tested on: SNB-19
# NCI-H522 = tested on: NCI-H522
# SNB-75 = tested on: SNB-75
# OVCAR-5 = tested on: OVCAR-5
# KM12 = tested on: KM12
# SF-539 = tested on: SF-539
# OVCAR-8 = tested on: OVCAR-8
# MDA-N = tested on: MDA-N
# SK-MEL-28 = tested on: SK-MEL-28
# HCT-15 = tested on: HCT-15
# UACC-257 = tested on: UACC-257
# OVCAR-4 = tested on: OVCAR-4
# NCI-H460 = tested on: NCI-H460
# UO-31 = tested on: UO-31
# MDA-MB-231 = tested on: MDA-MB-231
# HCT-116 = tested on: HCT-116
# LOX IMVI = tested on: LOX IMVI
# M14 = tested on: M14
# T47D = tested on: T47D
# NCI/ADR-RES = tested on: NCI/ADR-RES
# SK-MEL-5 = tested on: SK-MEL-5
# HOP-62 = tested on: HOP-62
# K562 = tested on: K562
# UACC-62 = tested on: UACC-62
# NCI-H226 = tested on: NCI-H226
# RXF 393 = tested on: RXF 393
# A498 = tested on: A498
compound,measurement,setting,value
C1CC[C@H]2SSC3CCCC[C@H]3SSC2C1 (stereo not given in full),GI50,SK-OV-3,> 100 µM (inactive)
same,GI50,IGROV-1,> 100 µM (inactive)
same,GI50,U-251,> 100 µM (inactive)
same,GI50,OVCAR-3,> 100 µM (inactive)
same,GI50,A549,> 100 µM (inactive)
same,GI50,SF-268,> 100 µM (inactive)
same,GI50,SR,> 100 µM (inactive)
same,GI50,RPMI-8226,> 100 µM (inactive)
same,GI50,MDA-MB-435,> 100 µM (inactive)
same,GI50,DU-145,> 100 µM (inactive)
same,GI50,MOLT-4,> 100 µM (inactive)
same,GI50,EKVX,> 100 µM (inactive)
same,GI50,786-0,> 100 µM (inactive)
same,GI50,NCI-H23,> 100 µM (inactive)
same,GI50,HL-60,> 100 µM (inactive)
same,GI50,HCC 2998,> 100 µM (inactive)
same,GI50,BT-549,> 100 µM (inactive)
same,GI50,HT-29,> 100 µM (inactive)
same,GI50,MCF7,> 100 µM (inactive)
same,GI50,COLO 205,> 100 µM (inactive)
same,GI50,TK-10,> 100 µM (inactive)
same,GI50,SN12C,> 100 µM (inactive)
same,GI50,HOP-92,> 100 µM (inactive)
same,GI50,PC-3,> 100 µM (inactive)
same,GI50,SW-620,> 100 µM (inactive)
same,GI50,SF-295,> 100 µM (inactive)
same,GI50,CCRF-CEM,> 100 µM (inactive)
same,GI50,SNB-19,> 100 µM (inactive)
same,GI50,NCI-H522,> 100 µM (inactive)
same,GI50,SNB-75,> 100 µM (inactive)
same,GI50,OVCAR-5,> 100 µM (inactive)
same,GI50,KM12,> 100 µM (inactive)
same,GI50,SF-539,> 100 µM (inactive)
same,GI50,OVCAR-8,> 100 µM (inactive)
same,GI50,MDA-N,> 100 µM (inactive)
same,GI50,SK-MEL-28,> 100 µM (inactive)
same,GI50,HCT-15,> 100 µM
same,GI50,UACC-257,> 100 µM (inactive)
same,GI50,OVCAR-4,> 100 µM (inactive)
same,GI50,NCI-H460,> 100 µM (inactive)
same,GI50,UO-31,> 100 µM (inactive)
same,GI50,MDA-MB-231,> 100 µM (inactive)
same,GI50,HCT-116,> 100 µM (inactive)
same,GI50,LOX IMVI,> 100 µM (inactive)
same,GI50,M14,> 100 µM (inactive)
same,GI50,T47D,> 100 µM (inactive)
same,GI50,NCI/ADR-RES,> 100 µM (inactive)
same,GI50,SK-MEL-5,> 100 µM (inactive)
same,GI50,HOP-62,> 100 µM (inactive)
same,GI50,K562,> 100 µM (inactive)
same,GI50,UACC-62,> 100 µM (inactive)
COc1cccc(-c2cc(O)c3cc(N(C)C)ccc3n2)c1,GI50,RPMI-8226,30.2 nM (active) and 37.2 nM (active)
same,GI50,MDA-MB-435,2.68 nM (active) and 1.39 nM (active)
same,GI50,NCI-H23,31.4 nM (active) and 37.4 nM (active)
same,GI50,NCI-H226,37.6 nM (active) and 23.7 nM (active)
same,GI50,BT-549,0.681 µM (active)
same,GI50,HT-29,22.9 nM (active) and 14 nM (active)
same,GI50,SN12C,44.9 nM (active) and 24.3 nM (active)
same,GI50,SNB-19,30.4 nM (active) and 28.2 nM (active)
same,GI50,OVCAR-5,48.1 nM (active) and 41.5 nM (active)
same,GI50,RXF 393,1.76 nM (active) and 18.8 nM (active)
same,GI50,OVCAR-8,32.2 nM (active) and 18.2 nM (active)
same,GI50,MDA-N,1.24 nM (active) and 2.27 nM (active)
same,GI50,HCT-15,0.00925 µM and 0.0116 µM
same,GI50,UACC-257,10.2 nM (active) and 5.13 nM (active)
same,GI50,OVCAR-4,4.95 µM (inactive) and 7.4 µM (inactive)
same,GI50,A498,< 0.01 µM (active)
same,GI50,MDA-MB-231,42.7 nM (active) and 25.8 nM (active)
same,GI50,T47D,> 10 µM (inactive)
same,GI50,HOP-62,25.6 nM (active) and 16.7 nM (active)
